Several values for one entry are separate records, joined by “and”; a condition that tells them apart may be missing. Identical values can stand only once. Like-named read-outs stand apart in the source and are kept apart here.
Experiments:
[1] = Experimental: (§1) A NMR-based method was developed since alendronate lacks the chromophoric group of risedronate. The NMR experiments were carried out in H2O instead of D2O (or other deuterated solvents) simply using the aqueous solutions obtained after removal of TiO2 by centrifugation without concentration or further treatment. Only a small amount of C6D6 in a sealed capillary tube (reusable) inserted into the NMR tube was required to achieve the field lock. […] To determine the concentration of sodium alendronate in aqueous solutions, a known amount of an internal standard was added before each NMR measurements, namely 1,3,5-triaza-7-phospha-adamantane, a water-soluble phosphine.
Sodium Alendronate trihydrated was adsorbed on TiO2 as described above. After centrifugation, the recovered solid was dried at 40° C./0.1 mbar for 6 h. A suspension of this solid in 50 ml of aqueous HCl (pH 1.0) or NaOH (pH 9.0) was vigorously stirred at the stated temperature in a nitrogen atmosphere. The pH of the basic solution was constantly monitored and maintained at the initial level by addition of 0.05 M NaOH.

[2] = Adsorption of drug on TiO2 nanoparticles; format: physicochemical
Experimental: To a stirred solution of Sodium Risedronate (625 mg) in deionized water (100 ml) increasing amounts of nanocrystalline TiO2 were added (ca. 20 nm nanoparticle size). […] This limit probably corresponds to a total surface coverage of the nanoparticles.
190 mg of Sodium Risedronate were adsorbed at 25° C. on 3.00 g of TiO2 nanoparticles having an average diameter of 20-25 nm.
(§2) To an aqueous solution containing 625 mg of Sodium Risedronate in 100 ml of deionized water 3.00 g of TiO2 was added. The suspension was stirred for 72 h at room temperature and then centrifuged at 4000 rpm for 10 min. The solid was suspended twice in a pH 1 HCl solution, stirred for 20 min and centrifuged. The solid was finally dried at 40° C. under vacuum.
as §1
TiO2 (25 nm, 1.00 g) was added to a solution of Sodium Alendronate trihydrated (207 mg, 0.64 mmol) in H2O (50 ml) and the resulting suspension (pH 4.5) was vigorously stirred in the dark at 25° C. for 48 h, then centrifuged (4,000 rpm, 5 min). The cloudy supernatant was recovered, treated with solid NaCl (ca. 3 g), kept at room temperature for 2 h, and centrifuged (4,000 rpm, 5 min). To the resulting solution was added 1,3,5-triaza-7-phospha-adamantane and the concentration of residual sodium alendronate was estimated by ^31P-NMR as described above.

[3] = in vivo; cited from earlier work
[4] = Desorption of Sodium Risedronate from TiO2 in aqueous solution at different pH; format: physicochemical; conditions: for amount released, % of the initial concentration on TiO2: pH=8, 25° C.
Experimental: Desorption of Sodium Risedronate from TiO2 at 25° C. was studied in aqueous solution at different pH values.
The desorption as function of time of Sodium Risedronate from TiO2 was studied in aqueous solution at pH 9 and at 36° C.
as §2
Nine separate 30 mg portions of TiO2 adsorbed with Sodium Risedronate were suspended in 10 ml of pH 9 NaOH solutions and left stirring for different times in the range 1-120 min. During drug desorption the pH of the suspension was kept at the original value by small addition of NaOH solution. In all cases the concentration of desorbed drug was corrected for volume changes.

[5] = 250 mg of TiO2 carrying 16 mg of drug
[6] = 1.00 g TiO2 (25 nm), 24 h stirring, 25° C.

| Structure (SMILES) | release to the intestine [1, 5] [mg] | Desorption ([1]; pH 1.0, 2 h stirring at 25° C.) | Desorption ([1]; pH 9.0, 30 min stirring at 25° C.) [%] | Desorption ([1]; pH 9.0, 2 h stirring at 25° C.) [%] | Desorption ([1]; pH 9.0, 6 h stirring at 37° C.) | amount adsorbed on TiO2 ([2]; 1.00 g TiO2 (25 nm), 207 mg in 50 ml H2O, 48 h stirring, 25° C.) [mg] | amount adsorbed on TiO2 [2, 6] [mg] | amount adsorbed, % of the initial amount [2, 6] [%] | amount adsorbed, % of the initial amount ([2]; 1.00 g TiO2 (25 nm), 48 h stirring, 25° C.) | oral bioavailability [3] [%] | amount of drug released in the intestine [4, 5] [mg] | release in the gastroesophageal region [4, 5] | adsorbed drug desorbed ([4]; pH 9, 36° C., after 1 minute) [%] | amount of drug released ([4]; pH 9, 36° C., in the next 60 min) [%] | amount of drug released ([4]; pH 9, 36° C., longer times (up to 120 min), constant) [%] | amount released, % of the initial concentration on TiO2 ([4]; after 30 min) [%] | amount released, % of the initial concentration on TiO2 ([4]; after 2 hours) [%] | amount of drug which can be adsorbed on the surface of the nanocrystalline substrate ([2]; 625 mg in 100 ml deionized water, increasing amounts of TiO2 ca. 20 nm, limit value) [%] | amount adsorbed on TiO2 ([2]; on 3.00 g of TiO2 nanoparticles (20-25 nm), 25° C./room temperature, from 625 mg) [mg] |
| --- | --- | --- | --- | --- | --- | --- | --- | --- | --- | --- | --- | --- | --- | --- | --- | --- | --- | --- | --- |
| NCCCC(O)(P(=O)(O)O)P(=O)(O)O [Sodium Alendronate] | 4 | not detected | 8 | 12 | 22% and 16-22% | 71 | 66 | 32 | 34% and 26-34% | – | – | – | – | – | – | – | – | – | – |
| O=P(O)(O)C(O)(Cc1cccnc1)P(=O)(O)O [Sodium Risedronate] | – | – | – | – | – | – | – | – | – | 0.63 | 6 to 9 | negligible release | 25 | 36 | 36 | ~35 | 35 | 31 | 190 |

Reference: patent US20080206347A1, “Pharmaceutical Formulations Comprising Active Pharmaceutical Principles Adsorbed on Titanium Dioxide Nanoparticles” (FLAMMA S.P.A., priority 2005, published 2008)
